Values of other authors, collected in patent publication US20200337300A1, “GREASE-LIKE GEL FOR REPELLING INSECTS AND PREVENTING UNDESIRABLE BEHAVIOR IN HOOFED ANIMALS” (Pacific Tech Industries, Inc., priority 2010, published 2020).

How the values were obtained:
[1] = pungency of the pure capsaicinoid
[2] = for solubility in organic solvents: most organic solvents

Row | SMILES | Scoville heat units [1] | solubility in organic solvents [2] | solubility in water [2]
1 | COc1cc(CNC(=O)CCCCCCCC(C)C)ccc1O [Homodihydrocapsaicin] | 8,600,000 Scoville heat units |  | 
2 | COc1cc(CNC(=O)CCCC/C=C/C(C)C)ccc1O [Capsaicin, 8-methyl-N-vanillyl-6-nonenamide] | 16,000,000 Scoville heat units |  | 
3 | C=CCS[S+]([O-])CC=C (stereo not shown) [allicin] |  | soluble in most organic solvents | slightly soluble in water
4 | C=CCN=C=S [Allyl isothiocyanate] |  | soluble in most organic solvents | slightly soluble in water
5 | COc1cc(CNC(=O)CCCCC/C=C/C(C)C)ccc1O [Homocapsaicin] | 8,600,000 Scoville heat units |  | 
